Source: patent US9096591B2, “Tetracyclic compounds” (Medivation Technologies, Inc., priority 2007, dated 2015)
Like-named read-outs stand apart in the source and are kept apart here.

Tests used:
[1] = target: T1, human recombinant histamine H1 receptor (Homo sapiens, UniProt P35367); experiment: Histamine H1 radioligand binding ([3H]Pyrilamine)
T1 construct: expressed in transfected cells; host or cells: CHO cells
Summary of the method: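 CHO-expressed receptor in modified Tris-HCl buffer (50 mM, pH 7.4; 2 mM MgCl2, 100 mM NaCl, 250 mM sucrose); bound ligand measured after filtration and washing.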

[2] = target: T2, human recombinant histamine H2 receptor (Homo sapiens, UniProt P25021); experiment: Histamine H2 radioligand binding ([125I]Aminopotentidine)
T2 construct: expressed in transfected cells; host or cells: CHO-K1 cells
Summary of the method: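 This radioligand binding assay measured displacement of [125I]Aminopotentidine from recombinant human histamine H2 receptors. Compounds were dissolved in 1% DMSO vehicle. Specific binding was calculated by subtracting non-specific binding, defined using 3 μM Tiotidine, and activity was reported as percentage inhibition of that specific binding.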

[3] = target: T3, human recombinant adrenergic α1D receptor (Homo sapiens, UniProt P25100); experiment: Adrenergic α1D radioligand binding ([3H]Prozosin); design: Inhibition of ligand binding, Adren. alpha1D: concentration or dose not given beside the values; conditions: percent inhibition of specific binding
T3 construct: expressed in transfected cells; host or cells: HEK-293 cells
T3 sequence (P25100 1-572): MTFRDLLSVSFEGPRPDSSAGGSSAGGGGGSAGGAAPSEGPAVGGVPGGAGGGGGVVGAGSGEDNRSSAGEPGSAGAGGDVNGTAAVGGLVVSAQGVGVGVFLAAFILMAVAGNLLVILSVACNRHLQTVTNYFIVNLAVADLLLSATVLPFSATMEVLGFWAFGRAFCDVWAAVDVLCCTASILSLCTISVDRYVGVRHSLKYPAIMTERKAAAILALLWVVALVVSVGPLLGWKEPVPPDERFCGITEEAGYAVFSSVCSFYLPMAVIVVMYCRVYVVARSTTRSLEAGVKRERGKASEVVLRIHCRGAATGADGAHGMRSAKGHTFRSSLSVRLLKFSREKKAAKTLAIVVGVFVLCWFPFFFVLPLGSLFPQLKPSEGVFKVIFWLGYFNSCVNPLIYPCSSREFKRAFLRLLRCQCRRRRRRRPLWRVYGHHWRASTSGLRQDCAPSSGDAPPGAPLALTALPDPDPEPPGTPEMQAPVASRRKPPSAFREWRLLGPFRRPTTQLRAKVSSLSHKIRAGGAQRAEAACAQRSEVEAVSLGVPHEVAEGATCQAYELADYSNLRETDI
Method: Compounds of invention were incubated with 0.6 nM [^3H]Prozosin for 60 minutes at 25° C. Non-specific binding was estimated in the presence of 10 μM phentolamine. Receptor proteins were filtered and washed, the filters were then counted to determine [^3H]Prozosin specifically bound. […] Biochemical assay results are presented as the percent inhibition of specific binding in Table 6.

[4] = target: T4, human recombinant dopamine D2L receptor (Homo sapiens, UniProt P14416); experiment: Dopamine D2L radioligand binding ([3H]Spiperone); conditions: percent inhibition of specific binding
T4 construct: expressed in transfected cells; host or cells: CHO cells
Method: Non-specific binding was estimated in the presence of 10 μM Haloperidol. Receptor proteins were filtered and washed, the filters were then counted to determine [^3H]Spiperone specifically bound. […] Biochemical assay results are presented as the percent inhibition of specific binding in Table 6.

[5] = target: T5, human recombinant serotonin (5-Hydroxytryptamine) 5-HT2A receptor (Homo sapiens, UniProt P28223); experiment: Serotonin 5-HT2A radioligand binding ([3H]Ketanserin); conditions: percent inhibition of specific binding
T5 construct: expressed in transfected cells; host or cells: CHO-K1 cells
Method: Compounds of the invention were incubated with 0.5 nM [^3H]Ketanserin for 60 minutes at 25° C. Non-specific binding was estimated in the presence of 1 μM Mianserin. Receptor proteins were filtered and washed, the filters were then counted to determine [^3H]Ketanserin specifically bound. […] Biochemical assay results are presented as the percent inhibition of specific binding in Table 6.

[6] = target: T6, human recombinant adrenergic α2B receptor (Homo sapiens, UniProt P18089); experiment: Adrenergic α2B radioligand binding ([3H]Rauwolscine); design: Inhibition of ligand binding, Adren. alpha2B: concentration or dose not given beside the values; conditions: percent inhibition of specific binding
T6 construct: expressed in transfected cells; host or cells: CHO-K1 cells
T6 sequence (P18089 1-450): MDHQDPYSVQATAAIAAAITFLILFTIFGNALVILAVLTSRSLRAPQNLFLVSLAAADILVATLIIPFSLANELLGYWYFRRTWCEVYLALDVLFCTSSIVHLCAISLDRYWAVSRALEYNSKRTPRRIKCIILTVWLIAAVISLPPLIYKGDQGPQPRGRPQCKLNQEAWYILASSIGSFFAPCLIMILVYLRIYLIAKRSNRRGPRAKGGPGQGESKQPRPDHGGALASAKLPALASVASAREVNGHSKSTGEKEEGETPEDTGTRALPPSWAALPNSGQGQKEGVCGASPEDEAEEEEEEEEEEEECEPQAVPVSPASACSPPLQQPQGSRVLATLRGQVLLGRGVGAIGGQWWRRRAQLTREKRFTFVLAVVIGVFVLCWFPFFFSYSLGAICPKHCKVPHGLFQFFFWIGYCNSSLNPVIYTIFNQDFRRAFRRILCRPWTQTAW
Summary of the method: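 Incubation ran 60 minutes at 25 °C in modified Tris-HCl buffer (50 mM, pH 7.4, 12.5 mM MgCl2, 1 mM EDTA, 0.2% BSA) using CHO-K1-expressed human receptor.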

[7] = read-out: Histamine Binding H1, percent inhibition of specific binding
[8] = percent inhibition of specific binding, screened at 1 μM, read-out: Inhibition of ligand binding, Hist. H2
[9] = percent inhibition of specific binding, screened at 1 μM, read-out: Inhibition of ligand binding, Hist. H1

T1 sequence (P35367 whole entry): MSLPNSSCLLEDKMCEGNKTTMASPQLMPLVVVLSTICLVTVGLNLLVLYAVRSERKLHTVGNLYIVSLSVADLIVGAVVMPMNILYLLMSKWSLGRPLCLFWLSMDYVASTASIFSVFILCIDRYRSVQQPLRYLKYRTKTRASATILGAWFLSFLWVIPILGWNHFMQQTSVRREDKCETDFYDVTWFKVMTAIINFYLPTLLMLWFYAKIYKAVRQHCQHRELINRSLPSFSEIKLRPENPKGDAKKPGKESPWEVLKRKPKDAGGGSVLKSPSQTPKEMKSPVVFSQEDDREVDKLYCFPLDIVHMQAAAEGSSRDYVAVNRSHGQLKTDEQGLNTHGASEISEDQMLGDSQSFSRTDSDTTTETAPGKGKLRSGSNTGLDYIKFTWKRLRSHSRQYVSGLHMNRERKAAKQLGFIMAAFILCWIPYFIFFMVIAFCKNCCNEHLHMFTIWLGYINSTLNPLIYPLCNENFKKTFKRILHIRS
T2 sequence (P25021 whole entry): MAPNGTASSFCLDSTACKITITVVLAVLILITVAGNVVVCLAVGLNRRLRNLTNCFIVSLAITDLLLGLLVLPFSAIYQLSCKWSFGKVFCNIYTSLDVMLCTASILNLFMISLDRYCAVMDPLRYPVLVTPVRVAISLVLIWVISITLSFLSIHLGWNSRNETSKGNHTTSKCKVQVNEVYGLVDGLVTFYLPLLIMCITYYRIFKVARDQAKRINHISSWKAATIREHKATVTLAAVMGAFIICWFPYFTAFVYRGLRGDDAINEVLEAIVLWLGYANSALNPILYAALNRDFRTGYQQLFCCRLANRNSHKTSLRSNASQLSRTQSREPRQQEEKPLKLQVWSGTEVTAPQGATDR
T4 sequence (P14416 whole entry): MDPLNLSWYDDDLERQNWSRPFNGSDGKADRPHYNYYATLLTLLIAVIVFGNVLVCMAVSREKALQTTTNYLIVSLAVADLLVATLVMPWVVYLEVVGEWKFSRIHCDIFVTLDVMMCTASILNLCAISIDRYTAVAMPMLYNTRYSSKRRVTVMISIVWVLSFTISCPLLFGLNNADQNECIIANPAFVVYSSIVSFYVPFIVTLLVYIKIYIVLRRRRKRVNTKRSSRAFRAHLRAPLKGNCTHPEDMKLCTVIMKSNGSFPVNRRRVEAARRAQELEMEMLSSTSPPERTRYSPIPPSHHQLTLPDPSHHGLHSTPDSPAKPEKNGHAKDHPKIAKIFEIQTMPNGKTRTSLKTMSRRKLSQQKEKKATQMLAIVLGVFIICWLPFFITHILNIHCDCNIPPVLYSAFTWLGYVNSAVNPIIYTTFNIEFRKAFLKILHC
T5 sequence (P28223 whole entry): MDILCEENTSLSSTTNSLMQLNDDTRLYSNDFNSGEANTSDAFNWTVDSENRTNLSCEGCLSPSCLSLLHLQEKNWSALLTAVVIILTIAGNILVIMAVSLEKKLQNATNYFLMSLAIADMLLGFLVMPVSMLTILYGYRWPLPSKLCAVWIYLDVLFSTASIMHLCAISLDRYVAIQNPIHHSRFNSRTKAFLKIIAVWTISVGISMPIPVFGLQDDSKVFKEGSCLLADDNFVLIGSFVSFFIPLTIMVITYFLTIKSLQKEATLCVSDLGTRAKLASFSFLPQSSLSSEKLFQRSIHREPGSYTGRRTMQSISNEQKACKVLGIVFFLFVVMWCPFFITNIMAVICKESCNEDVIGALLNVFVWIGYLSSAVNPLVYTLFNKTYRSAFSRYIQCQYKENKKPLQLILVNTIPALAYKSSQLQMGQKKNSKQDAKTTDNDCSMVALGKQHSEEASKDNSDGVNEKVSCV

Row | Structure (SMILES) | inhibition at 0.03 µM [1, 7] | inhibition at 0.1 µM [1, 7] | inhibition at 1 µM [1, 7] | inhibition at 1 µM ([1]; read-out: Inhibition of ligand binding, Hist. H1) | inhibition at 0.1 µM ([2]; 0.1 μM compound, 0.1 nM [125I]Aminopotentidine, read-out: Histamine Binding H2, percent inhibition of specific binding) | inhibition at 0.3 µM ([2]; 0.3 μM compound, 0.1 nM [125I]Aminopotentidine, read-out: Histamine Binding H2, percent inhibition of specific binding) | inhibition at 1 µM ([2]; 1 μM compound, 0.1 nM [125I]Aminopotentidine, read-out: Histamine Binding H2, percent inhibition of specific binding) | inhibition at 1 µM [2, 8] | Inhibition of ligand binding, Adren. alpha1D [3] | Inhibition of ligand binding, Dop. D2L [4] | Inhibition of ligand binding, Ser. 5-HT2A [5] | inhibition at 1 µM [1, 9] | Inhibition of ligand binding, Adren. alpha2B [6] | inhibition at […] ([2]; […] compound, 0.1 nM [125I]Aminopotentidine, read-out: Histamine Binding H2, percent inhibition of specific binding)
1 | CN1CCc2c(c3ccccc3n2CCc2ccccc2)C1 [Compound 2, 2,3,4,5-tetrahydro-2-methyl-5-phenethyl-1H-pyrido[4,3-b]indole] | 31% | 54% | 87% | 87% | 34% | 56% | 81% | 81% | 72% | 70% | 96% | – | – | –
2 | CN1CCc2c(c3cc(Cl)ccc3n2CCc2cccnc2)C1 [Compound 55] | – | – | – | – | – | – | – | 62% | 84% | 29% | 86% | 101% | 90% | –
3 | CN1CCc2c(c3cc(Cl)ccc3n2CCc2ccncc2)C1 [Compound 56] | – | – | – | – | – | – | – | 76% | 91% | 62% | 92% | 100% | 119% | –
4 | Cc1ccc2c(c1)c1c(n2CCc2cccnc2)CCN(C)C1 [Compound 60] | – | – | – | – | – | – | – | 56% | 82% | 24% | 84% | 101% | 95% | –
5 | CN1CCc2c(c3cc(Cl)ccc3n2CCN2CCCCC2)C1 [Compound 189] | – | – | – | – | – | – | – | 87% | 28% | 0% | – | 94% | 72% | –
6 | Cc1ccc2c(c1)c1c(n2CCN2CCCCC2)CCN(C)C1 [Compound 224, 2,3,4,5-tetrahydro-2,8-dimethyl-5-(2-(piperidin-1-yl)ethyl)-1H-pyrido[4,3-b]indole] | – | – | – | – | – | – | – | 79% | 22% | – | 32% | 56% | 46% | –
7 | Cc1ccc2c(c1)c1c(n2CCc2ccccc2)CCN(C(=O)OCC(Cl)(Cl)Cl)C1 [Compound 227, 2,2,2-trichloroethyl 3,4-dihydro-8-methyl-5-phenethyl-1H-pyrido[4,3-b]indole-2(5H)-carboxylate] | – | – | – | – | – | – | – | 1% | 11% | – | −2% | -5% | 0% | –
8 | Cc1ccc2c(c1)c1c(n2CCc2ccccc2)CCNC1 [Compound 228, 2,3,4,5-tetrahydro-8-methyl-5-phenethyl-1H-pyrido[4,3-b]indole] | – | – | – | – | – | – | – | 15% | 76% | – | 77% | 81% | 101% | –
9 | CC(C)N1CCN(C(=O)Cn2c3c(c4cc(Cl)ccc42)CN(C)CC3)CC1 [Compound 248] | – | – | – | – | – | – | – | 7% | 26% | 2% | – | 85% | 75% | –
10 | CN1CCc2c(c3cc(F)ccc3n2CCc2ccc(Cl)cc2)C1 [Compound 249] | – | – | – | – | – | – | – | 88% | 65% | 64% | – | 100% | 109% | –
11 | Cc1ccc2c(c1)c1c(n2CC(=O)N2CCC(C)CC2)CCN(C)C1 [Compound 251] | – | – | – | – | – | – | – | 21% | 14% | −7% | – | 55% | 8% | –
12 | CN1CCc2c(c3cc(F)ccc3n2CCc2ccc(F)cc2)C1 [Compound 253] | – | – | – | – | – | – | – | 73% | 81% | 96% | – | 97% | 104% | –
13 | Cc1ccc(CCn2c3c(c4cc(C(=O)O)ccc42)CN(C)CC3)cn1 [Compound 256, 2-Methyl-5-(2-(6-methylpyridin-3-yl)ethyl)-2,3,4,5-tetrahydro-1H-pyrido[4,3-b]indole-8-carboxylic acid] | – | – | – | – | – | – | – | -6% | −10% | – | 2% | -1% | 4% | -16%
14 | Cc1ccc2c(c1)c1c(n2CC(=O)N2CCCC2)CCN(C)C1 [Compound 257, 2-(1,2,3,4-tetrahydro-2,8-dimethylpyrido[4,3-b]indol-5-yl)-1-(pyrrolidin-1-yl)ethanone] | – | – | – | – | – | – | – | 1% | 3% | −7% | – | 64% | 20% | –
15 | Cc1ccc2c(c1)c1c(n2CCc2ccc(C(=O)O)nc2)CCNC1 [Compound 262] | – | – | – | – | – | – | – | -8% | 3% | – | 6% | 81% | −2% | –
16 | Cc1ccc2c(c1)c1c(n2CCC(=O)N2CCC(NC(=O)OC(C)(C)C)CC2)CCN(C)C1 [Compound 393, tert-butyl 1-(3-(1,2,3,4-tetrahydro-2,8-dimethylpyrido[4,3-b]indol-5-yl)propanoyl)piperidin-4-ylcarbamate] | – | – | – | – | – | – | – | 3% | 16% | – | 19% | 28% | 28% | –
17 | Cc1ccc2c(c1)c1c(n2CCc2ccc(C)[n+]([O-])c2)CCN(C)C1 [Compound 394, 5-(2-(2,8-dimethyl-3,4-dihydro-1H-pyrido[4,3-b]indol-5(2H)-yl)ethyl)-2-methylpyridine 1-oxide] | – | – | – | – | – | – | – | -2% | 9% | – | 3% | 30% | 19% | –
